{"source": "paper PMC6562844", "about": "“A Basic Study of Photodynamic Therapy with Glucose-Conjugated Chlorin e6 Using Mammary Carcinoma Xenografts” (Cancers, 2019)", "key": {"[1]": {"assay": "Pharmacokinetics after intravenous administration in healthy dogs", "assay_type": "in vivo", "conditions": "beagle, dog, plasma, i.v.; for Vd: read-out: Vdss", "method": "(§1) The animal protocol using healthy beagle dogs was approved by the Animal Research Committee of the Tottori University (project number: 17-T-3). For the pharmacokinetic crossover study, 6, 3, and 1 healthy beagle dogs were intravenously administered G-Ce6 at a dose of 2, 5, and 20 mg/kg, respectively. The ages of the healthy dogs (3 males and 3 females) ranged from 6–12 years old (mean and median, 8.6 and 7.5 years, respectively); the dogs weighed 8.7–11.2 kg (mean and median, 10.2 and 10.5 kg, respectively).\nThe volume of G-Ce6 required to achieve the desired doses was diluted with 0.5% saline to obtain a total injection volume of 10 mL. The full injection volume was intravenously administered over 10 min at a rate of 60 mL/h using an appropriate syringe pump.\nBlood samples were collected at 0, 10, and 30 min, and 1, 3, 6, and 24 h after the end of G-Ce6 injection. The samples were mixed with heparin in plastic tubes and centrifuged at 600 × g for 5 min at 4 °C; 0.2 mL of plasma from each centrifuged sample was transferred to Eppendorf tubes. The collected plasma samples were kept in the dark to avoid light exposure until assay initiation. For fluorescence measurement, plasma was read on a Fluorescence Spectrometer SH-9000Lab (excitation, 405 nm and emission, 665 nm; Hitachi High-Technologies Co., Tokyo, Japan). The concentration of G-Ce6 was determined by comparison with appropriate standards. The concentrations of G-Ce6 in the plasma were fitted to a two-compartment model and analyzed with a pharmacokinetic analysis program (http://www.pharm.kyoto-u.ac.jp/byoyaku/Kinetics/download.html). The pharmacokinetic parameters were calculated as follows: half-life (T1/2) = ln 2/β, where β is the slope of the elimination phase; volume of distribution at steady state (Vdss) = dose (A/α^2 + B/β^2)/((A/α) + (B/β))^2, where A and B are the intercepts of the distribution and elimination phases, respectively; α is the slope of the distribution phase; and clearance (CL) = dose/AUC, where AUC is the area under the curve, which was calculated using the trapezoidal method."}, "SNP cells [2]": {"system": "SNP cells", "assay": "Photodynamic cytotoxicity in SNP cells (Cell Counting Kit-8)", "assay_type": "cell-based, canine", "conditions": "for Cell viability compared with 0 J/cm^2 of light: p < 0.01; for IC50: Canis lupus familiaris, light or radiation study, 24 h, 24 h incubation, 650-nm laser 10 mW/cm^2, viability 24 h after PDT, read-out: IC50 against SNP cells", "method": "We seeded 1 × 10^4 SNP cells into each well of 96-well plates (Corning Inc., New York, NY, USA) followed by overnight incubation. Cells were then incubated with various concentrations of G-Ce6 for 24 h at 37 °C. After washing with fresh media, the cells were irradiated with 650-nm light emitted by a semiconductor laser (Osada Electric Co., Ltd., Tokyo, Japan), using an optical fiber with a micro-lens delivery attachment (Pioneer Optics, Inc., Windsor Lock, CT, USA). PDT was performed at 10 mW/cm^2 in cells exposed to six concentrations of NPe6 and G-Ce6 (0, 0.064, 0.32, 1.6, 8.0, or 40.0 μg/mL) using four light doses (0, 1, 5, or 15 J/cm^2). The cells were then incubated for 24 h in the dark prior to examining cell viability using the Cell Counting Kit-8 (Dojindo, Kumamoto, Japan), according to the manufacturer’s instructions."}, "SNP cells [3]": {"system": "SNP cells", "assay": "Analysis of apoptosis (Muse Annexin V and Dead Cell Assay kit)", "assay_type": "cell-based, canine", "conditions": "8 μg/mL; 1, 5, or 15 J/cm^2; 4 h after PDT; p < 0.01", "method": "(§2) SNP cells were seeded at a density of 5 × 10^4 cells/well in 35-mm petri dishes containing 2 mL culture medium. Following 24 h of incubation, the cells were divided into the following groups: control (no treatment); laser (irradiated with a light dose of 15 J/cm^2); G-Ce6 (treated with 8 μg/mL G-Ce6); and PDT (treated with 8 μg/mL G-Ce6, and then irradiated with a light dose of 1, 5, or 15 J/cm^2).\nThe cells were incubated with 8 μg/mL G-Ce6 for 24 h. After washing with fresh media, the cells were irradiated with 650-nm laser light (10 mW/cm^2; 1, 5, and 15 J/cm^2) emitted by a semiconductor laser, using an optical fiber with a microlens delivery attachment. Apoptosis was assessed 4 h after laser irradiation using the Muse Annexin V and Dead Cell Assay kit (EMD Millipore Co., Billerica, MA, USA), according to the manufacturer’s protocols. Annexin V was used to detect phosphatidylserine on the external membrane of apoptotic cells.\n(§3) Single-cell suspensions were then loaded onto the Muse Cell Analyzer (EMD Millipore Co.)."}, "[4]": {"assay": "General physical examination and blood analysis in dogs", "assay_type": "in vivo, healthy beagle dogs", "conditions": "for ALP / ALT / AST / BUN / Cre / GGT / Glu: Post (1 day after administration)", "method": "as §1\nA general physical examination was performed on all dogs before and after PDT. Serum biochemistry analysis of glucose (Glu), AST, ALT, alkaline phosphatase (ALP), γ-glutamyltranspeptidase (GGT), blood urea nitrogen, and creatinine (Cre) was also performed for all dogs immediately before and 1 day after G-Ce6 administration."}, "SNP cells [5]": {"system": "SNP cells", "assay": "Reactive oxygen species assay (Muse Oxidative Stress kit)", "assay_type": "cell-based, canine", "conditions": "8 μg/mL, 4 h after PDT", "method": "as §2\nReactive oxygen species (ROS) generation was assessed 4 h after laser irradiation using the Muse Oxidative Stress kit (EMD Millipore Co.), according to the manufacturer’s protocols; this kit determines the percentage of cells that are negative (healthy cells) and positive for ROS (cells containing ROS).\nas §3"}}, "note": "Read-outs that look alike come from different tables or passages of the source.", "data": [{"smiles": "CCC1=C(C)c2cc3[nH]c(cc4nc(c(CC(=O)OC)c5[nH]c(cc1n2)c(C)c5C(=O)OC)[C@@H](CCC(=O)OC)[C@@H]4C)c(C)c3C(C)OCCCS[C@@H]1O[C@H](CO)[C@@H](O)[C@H](O)[C@H]1O", "note": "(stereo partly drawn) [G-Ce6, Methyl (7S,8S)-18-ethyl-5-(2-methoxy-2-oxoethyl)-7-(3-methoxy-3-oxopropyl)-2,8,12,17-tetramethyl-13-(1-(3-(((2S,3R,4S,5S,6R)-3,4,5-trihydroxy-6-(hydroxymethyl)tetrahydro-2H-pyran-2-yl)thio)propoxy)ethyl)-7H,8H-porphyrin-3-carboxylate]", "values": [{"measurement": "AUC", "setting": "[1]; 5 mg/kg (n = 3)", "value": "59700 ± 7870", "unit": "ng·h/mL"}, {"measurement": "Cmax", "setting": "[1]; 5 mg/kg (n = 3)", "value": "47000 ± 12200", "unit": "ng/mL"}, {"measurement": "clearance", "setting": "[1]; 5 mg/kg (n = 3)", "value": 1.41, "unit": "mL/min/kg"}, {"measurement": "half-life", "setting": "[1]; 5 mg/kg (n = 3)", "value": "2.84 ± 0.6", "unit": "h"}, {"measurement": "Vd", "setting": "[1]; 5 mg/kg (n = 3)", "value": "0.258 ± 0.0656", "unit": "L/kg"}, {"measurement": "AUC", "setting": "[1]; 20 mg/kg (n = 1)", "value": 235000, "unit": "ng·h/mL"}, {"measurement": "Cmax", "setting": "[1]; 20 mg/kg (n = 1)", "value": 82000, "unit": "ng/mL"}, {"measurement": "clearance", "setting": "[1]; 20 mg/kg (n = 1)", "value": 1.42, "unit": "mL/min/kg"}, {"measurement": "half-life", "setting": "[1]; 20 mg/kg (n = 1)", "value": 2.51, "unit": "h"}, {"measurement": "Vd", "setting": "[1]; 20 mg/kg (n = 1)", "value": 0.284, "unit": "L/kg"}, {"measurement": "AUC", "setting": "[1]; both sexes, 2 mg/kg (n = 6)", "value": "12000 ± 3180", "unit": "ng·h/mL"}, {"measurement": "Cmax", "setting": "[1]; both sexes, 2 mg/kg (n = 6)", "value": "15200 ± 4440", "unit": "ng/mL"}, {"measurement": "clearance", "setting": "[1]; both sexes, 2 mg/kg (n = 6)", "value": 2.93, "unit": "mL/min/kg"}, {"measurement": "half-life", "setting": "[1]; both sexes, 2 mg/kg (n = 6)", "value": "3.02 ± 0.58", "unit": "h"}, {"measurement": "Vd", "setting": "[1]; both sexes, 2 mg/kg (n = 6)", "value": "0.529 ± 0.189", "unit": "L/kg"}, {"measurement": "Cell viability compared with 0 J/cm^2 of light", "setting": "SNP cells [2]; 1.6 μg/mL, 15 J/cm^2", "value": "significantly lower"}, {"measurement": "Cell viability compared with 0 J/cm^2 of light", "setting": "SNP cells [2]; 8 μg/mL, 5 J/cm^2 and 15 J/cm^2", "value": "significantly lower"}, {"measurement": "Cell viability compared with 0 J/cm^2 of light", "setting": "SNP cells [2]; 40 μg/mL, 1, 5, and 15 J/cm^2", "value": "significantly lower"}, {"measurement": "Cell death in the absence of laser irradiation", "setting": "SNP cells [2]; <40 μg/mL G-Ce6, no laser irradiation", "value": "not observed"}, {"measurement": "IC50", "setting": "SNP cells [2]; light dose 1 J/cm^2", "value": 33.4, "unit": "µg/mL"}, {"measurement": "IC50", "setting": "SNP cells [2]; light dose 5 J/cm^2", "value": 10.4, "unit": "µg/mL"}, {"measurement": "IC50", "setting": "SNP cells [2]; light dose 15 J/cm^2", "value": 1.7, "unit": "µg/mL"}, {"measurement": "Apoptotic rates compared with control group", "setting": "SNP cells [3]", "value": "significantly higher"}, {"measurement": "Changes in serum biochemical parameters", "setting": "[4]; 2 mg/kg i.v.", "value": "No significant changes"}, {"measurement": "Major skin photosensitivity or acute toxicity (vomiting, diarrhea, salivation)", "setting": "[4]; 2 mg/kg i.v.", "value": "no evidence"}, {"measurement": "Tolerability in safety examination", "setting": "[4]; 2 mg/kg i.v.", "value": "well tolerated"}, {"measurement": "ALP", "setting": "[4]; 2 mg/kg i.v.", "value": "154 ± 59.69", "unit": "U/L"}, {"measurement": "ALT", "setting": "[4]; 2 mg/kg i.v.", "value": "40 ± 7.17", "unit": "U/L"}, {"measurement": "AST", "setting": "[4]; 2 mg/kg i.v.", "value": "32 ± 4.72", "unit": "U/L"}, {"measurement": "BUN", "setting": "[4]; 2 mg/kg i.v.", "value": "15.8 ± 4.20", "unit": "mg/dL"}, {"measurement": "Cre", "setting": "[4]; 2 mg/kg i.v.", "value": "0.5 ± 0.09", "unit": "mg/dL"}, {"measurement": "GGT", "setting": "[4]; 2 mg/kg i.v.", "value": "1.5 ± 2.35", "unit": "U/L"}, {"measurement": "Glu", "setting": "[4]; 2 mg/kg i.v.", "value": "99.5 ± 17.85", "unit": "mg/dL"}, {"measurement": "Changes in serum biochemical parameters", "setting": "[4]; 5 mg/kg i.v.", "value": "no significant changes"}, {"measurement": "Side effects during administration", "setting": "[4]; 5 mg/kg i.v.", "value": "Nausea was observed"}, {"measurement": "ALP", "setting": "[4]; 5 mg/kg i.v.", "value": "141.0 ± 47.04", "unit": "U/L"}, {"measurement": "ALT", "setting": "[4]; 5 mg/kg i.v.", "value": "59.0 ± 9.52", "unit": "U/L"}, {"measurement": "AST", "setting": "[4]; 5 mg/kg i.v.", "value": "31.0 ± 10.47", "unit": "U/L"}, {"measurement": "BUN", "setting": "[4]; 5 mg/kg i.v.", "value": "13.4 ± 5.05", "unit": "mg/dL"}, {"measurement": "Cre", "setting": "[4]; 5 mg/kg i.v.", "value": "0.5 ± 0.13", "unit": "mg/dL"}, {"measurement": "GGT", "setting": "[4]; 5 mg/kg i.v.", "value": "5.0 ± 1.63", "unit": "U/L"}, {"measurement": "Glu", "setting": "[4]; 5 mg/kg i.v.", "value": "96.0 ± 10.88", "unit": "mg/dL"}, {"measurement": "Levels of AST and ALT in blood", "setting": "[4]; 20 mg/kg i.v.", "value": "Increases"}, {"measurement": "Side effects during administration", "setting": "[4]; 20 mg/kg i.v.", "value": "vomiting and weakness"}, {"measurement": "ALP", "setting": "[4]; 20 mg/kg i.v.", "value": 134.0, "unit": "U/L"}, {"measurement": "ALT", "setting": "[4]; 20 mg/kg i.v.", "value": 135.0, "unit": "U/L"}, {"measurement": "AST", "setting": "[4]; 20 mg/kg i.v.", "value": 55.0, "unit": "U/L"}, {"measurement": "BUN", "setting": "[4]; 20 mg/kg i.v.", "value": 8.6, "unit": "mg/dL"}, {"measurement": "Cre", "setting": "[4]; 20 mg/kg i.v.", "value": 0.5, "unit": "mg/dL"}, {"measurement": "GGT", "setting": "[4]; 20 mg/kg i.v.", "value": 14.0, "unit": "U/L"}, {"measurement": "Glu", "setting": "[4]; 20 mg/kg i.v.", "value": 107.0, "unit": "mg/dL"}, {"measurement": "Toxic dose level", "setting": "[4]; i.v.", "value": 20, "unit": "mg/kg"}, {"measurement": "Optimal dose, which did not cause any adverse effects", "setting": "[4]; i.v., based on pharmacokinetics and safety examination", "value": 2, "unit": "mg/kg"}, {"measurement": "Percentage of ROS (+) cells compared with control group", "setting": "SNP cells [5]; 5 J/cm^2, p < 0.01", "value": "significantly higher"}, {"measurement": "Percentage of ROS (+) cells", "setting": "SNP cells [5]; 15 J/cm^2", "value": "remarkably decreased"}]}]}
